Test results reported in patent US12133529B2, “Herbicidal phenylethers” (BASF SE, priority 2017, dated 2024).

How the values were obtained:
Format in all cases: in vivo
SETVI (Setaria viridis) = test: greenhouse herbicidal activity, post-emergence treatment; conditions: post-emergence method, application rate 16 g/ha, scale from 0 to 100, read-out: herbicidal activity against SETVI
From the text: (§1) The seeds of the test plants were sown separately for each species. For the post-emergence treatment, the test plants were first grown to a height of 3 to 15 cm, depending on the plant habit, and only then treated with the active ingredients which had been suspended or emulsified in water. For this purpose, the test plants were either sown directly and grown in the same containers, or they were first grown separately as seedlings and transplanted into the test containers a few days prior to treatment. Depending on the species, the plants were kept at 10-25° C. or 20-35° C., respectively. The test period extended over 2 to 4 weeks. During this time, the plants were tended, and their response to the individual treatments was evaluated. Evaluation was carried out using a scale from 0 to 100. 100 means no emergence of the plants, or complete destruction of at least the aerial moieties, and 0 means no damage, or normal course of growth. A good herbicidal activity is given at values of at least 70 and a very good herbicidal activity is given at values of at least 85. [table]

[1] = tested on: ECHCG (Echinocloa crus-galli); test: as above; conditions: scale from 0 to 100; for pest or weed control at 16 g/ha: Echinochloa crus-galli, post-emergence method, application rate 16 g/ha, read-out: herbicidal activity against ECHCG; for damages unwanted plants ECHCG: post-emergence application, 2 g/ha, control 21 days after treatment (greenhouse)
From the text: as §1

[2] = tested on: AMARE (Amaranthus retroflexus); test: as above; conditions: post-emergence method, application rate 16 g/ha, scale from 0 to 100, read-out: herbicidal activity against AMARE
From the text: as §1

[3] = tested on: CHEAL (Chenopodium album); test: as above; conditions: post-emergence method, application rate 16 g/ha, scale from 0 to 100, read-out: herbicidal activity against CHEAL
From the text: as §1

[4] = tested on: AMARE (Amaranthus retroflexus); test: greenhouse herbicidal activity, pre-emergence treatment; conditions: pre-emergence application, 32 g/ha, control 21 days after treatment (greenhouse), scale from 0 to 100
From the text: (§2) The seeds of the test plants were sown separately for each species. For the pre-emergence treatment, the active ingredients, which had been suspended or emulsified in water, were applied directly after sowing by means of finely distributing nozzles. The containers were irrigated gently to promote germination and growth and subsequently covered with transparent plastic hoods until the plants had rooted. This cover caused uniform germination of the test plants, unless this had been impaired by the active ingredients. Depending on the species, the plants were kept at 10-25° C. or 20-35° C., respectively. The test period extended over 2 to 4 weeks. During this time, the plants were tended, and their response to the individual treatments was evaluated. Evaluation was carried out using a scale from 0 to 100. 100 means no emergence of the plants, or complete destruction of at least the aerial moieties, and 0 means no damage, or normal course of growth. A good herbicidal activity is given at values of at least 70 and a very good herbicidal activity is given at values of at least 85. [table]

ZEAMX (Zea mays) [5] = test: greenhouse crop plant damage, pre-emergence treatment; conditions: pre-emergence application, 32 g/ha, control 21 days after treatment (greenhouse), scale from 0 to 100
From the text: as §2

ZEAMX (Zea mays) [6] = test: greenhouse crop plant damage, post-emergence treatment; conditions: post-emergence application, 2 g/ha, control 21 days after treatment (greenhouse), scale from 0 to 100
From the text: as §1

COC(=O)C(OC)Oc1ccccc1Oc1cc(-n2nc3n(c2=O)CCCC3)c(Cl)cc1Cl (stereo not drawn) [Example 7]
pest or weed control at 16 g/ha (SETVI (Setaria viridis)): ≥ 85% | pest or weed control at 16 g/ha [1]: ≥ 85% | pest or weed control at 16 g/ha [2]: ≥ 85% | pest or weed control at 16 g/ha [3]: ≥ 85%

CCOC(=O)COc1ncccc1Oc1cc(-n2c(=O)c(C)c(C(F)(F)F)n(C)c2=O)c(F)cc1[N+](=O)[O-] [Example 4, Ethyl 2-[[3-[5-[3,5-dimethyl-2,6-dioxo-4-(trifluoromethyl)pyrimidin-1-yl]-4-fluoro-2-nitro-phenoxy]-2-pyridyl]oxy]acetate]
pest or weed control at 16 g/ha (SETVI (Setaria viridis)): ≥ 85% | pest or weed control at 16 g/ha [1]: ≥ 85% | pest or weed control at 16 g/ha [2]: ≥ 85% | pest or weed control at 16 g/ha [3]: ≥ 85%

CCOC(=O)C(C)Oc1ncccc1Oc1cc(-n2nc3n(c2=O)CCCC3)c(Cl)cc1Cl (stereo not drawn) [Example 9]
pest or weed control at 16 g/ha [1]: ≥ 85% | pest or weed control at 16 g/ha [2]: ≥ 85% | pest or weed control at 16 g/ha [3]: ≥ 85%

CCOC(=O)COc1ncccc1Oc1cc(-n2nc3n(c2=O)CCCC3)c(Cl)cc1Cl [Example 2, ethyl 2-[[3-[2,4-dichloro-5-(3-oxo-5,6,7,8-tetrahydro-[1,2,4]triazolo[4,3-a]pyridin-2-yl)phenoxy]-2-pyridyl]oxy]acetate]
pest or weed control at 16 g/ha (SETVI (Setaria viridis)): ≥ 85% | pest or weed control at 16 g/ha [1]: ≥ 85% | pest or weed control at 16 g/ha [2]: ≥ 85% | pest or weed control at 16 g/ha [3]: ≥ 85%

CCOC(=O)COc1ncccc1Oc1cc(-c2ncc(C(F)(F)F)cc2Cl)c(F)cc1Cl [Example 18]
pest or weed control at 16 g/ha (SETVI (Setaria viridis)): ≥ 85% | pest or weed control at 16 g/ha [1]: ≥ 85% | pest or weed control at 16 g/ha [2]: ≥ 85% | pest or weed control at 16 g/ha [3]: ≥ 85%

CCOC(=O)COc1ncccc1Oc1cc(-c2nn(C)c(C(F)(F)F)cc2=O)c(F)cc1Cl [Example 15]
pest or weed control at 16 g/ha (SETVI (Setaria viridis)): ≥ 85% | pest or weed control at 16 g/ha [1]: ≥ 85% | pest or weed control at 16 g/ha [2]: ≥ 85% | pest or weed control at 16 g/ha [3]: ≥ 85%

CCOC(=O)COc1ccccc1Oc1cc(-n2c(=O)cc(C(F)(F)F)n(C)c2=O)c(F)cc1Cl [compound a-9, reference compound]
damages unwanted plants AMARE [4]: 100 | damages crop plants ZEAMX (ZEAMX (Zea mays) [5]): 40 | damages crop plants ZEAMX (ZEAMX (Zea mays) [6]): 70 | damages unwanted plants ECHCG [1]: 98

CCOC(=O)COc1ccccc1Oc1cc(-n2c(=O)c(C)c(C(F)(F)F)n(C)c2=O)c(F)cc1Cl [Example 16]
damages crop plants ZEAMX (ZEAMX (Zea mays) [6]): 10 | pest or weed control at 16 g/ha (SETVI (Setaria viridis)): ≥ 85% | pest or weed control at 16 g/ha [1]: ≥ 85% | damages unwanted plants ECHCG [1]: 100 | pest or weed control at 16 g/ha [2]: ≥ 85% | pest or weed control at 16 g/ha [3]: ≥ 85%

O=C(O)COc1ncccc1Oc1cc(-c2ncc(C(F)(F)F)cc2Cl)c(F)cc1Cl [Example 19]
pest or weed control at 16 g/ha (SETVI (Setaria viridis)): ≥ 85% | pest or weed control at 16 g/ha [1]: ≥ 85% | pest or weed control at 16 g/ha [2]: ≥ 85% | pest or weed control at 16 g/ha [3]: ≥ 85%

O=C(O)COc1ncccc1Oc1cc(-n2nc3n(c2=O)CCCC3)c(Cl)cc1Cl [Example 8]
pest or weed control at 16 g/ha (SETVI (Setaria viridis)): ≥ 85% | pest or weed control at 16 g/ha [1]: ≥ 85% | pest or weed control at 16 g/ha [2]: ≥ 85% | pest or weed control at 16 g/ha [3]: ≥ 85%

CCOC(=O)COc1ncccc1Oc1cc(-c2nn(C)c(OC(F)F)c2Cl)c(F)cc1Cl [Example 1, ethyl 2-[[3-[2-chloro-5-[4-chloro-5-(difluoromethoxy)-1-methyl-pyrazol-3-yl]-4-fluoro-phenoxy]-2-pyridyl]oxy]acetate]
pest or weed control at 16 g/ha (SETVI (Setaria viridis)): ≥ 85% | pest or weed control at 16 g/ha [1]: ≥ 85% | pest or weed control at 16 g/ha [2]: ≥ 85% | pest or weed control at 16 g/ha [3]: ≥ 85%

CCOC(=O)COc1ccccc1Oc1cc(-n2c(=S)cc(C(F)(F)F)n(C)c2=O)c(F)cc1Cl [Example 17]
damages unwanted plants AMARE [4]: 100 | damages crop plants ZEAMX (ZEAMX (Zea mays) [5]): 0 | pest or weed control at 16 g/ha (SETVI (Setaria viridis)): ≥ 85% | pest or weed control at 16 g/ha [1]: ≥ 85% | pest or weed control at 16 g/ha [2]: ≥ 85% | pest or weed control at 16 g/ha [3]: ≥ 85%
